Measured values from US4260745A, “3-Halo cephalosporins” (Eli Lilly and Company, priority 1979, dated 1981).
Counter-ions that a name gives are not always drawn. Like-named read-outs stand apart in the source and are kept apart here.

Experiment: Electrometric titration
Format: physicochemical
[1] = 66% aqueous dmf, only or first pKa, read-out: pKa

Row | pKa [1] | pKa (60% aqueous dmf, 60% aq. DMF, first group, read-out: titratable groups) | pKa (60% aqueous dmf, 60% aq. DMF, second group, read-out: titratable groups) | SMILES
1 | 5.6 | – | – | COC(=O)C1=C(O)CS[C@@H]2C(NC(=O)COc3ccccc3)C(=O)N12 (some centres unmarked) [Example 9, Methyl 7-phenoxyacetamido-3-hydroxy-3-cephem-4-carboxylate]
2 | 5.9 | – | – | O=C(Cc1cccs1)NC1C(=O)N2C(C(=O)OCc3ccc([N+](=O)[O-])cc3)=C(O)CS[C@H]12 (some centres unmarked) [Example 12, p-Nitrobenzyl 7-[2-(2-thienyl)acetamido]-3-hydroxy-3-cephem-4-carboxylate]
3 | 5.9 | – | – | CC(=O)NC1C(=O)N2C(C(=O)OCc3ccc([N+](=O)[O-])cc3)=C(O)CS[C@H]12 (some centres unmarked) [Example 13, p-Nitrobenzyl 7-acetamido-3-hydroxy-3-cephem-4-carboxylate]
4 | – | 4.5 | 6.5 | NC1C(=O)N2C(C(=O)OC(c3ccccc3)c3ccccc3)=C(O)CS[C@H]12 (some centres unmarked) [diphenylmethyl 7-amino-3-hydroxy-3-cephem-4-carboxylate hydrochloride]
